Assay results reported in ChEMBL document CHEMBL1143848, “Tetracycline resistance in group a streptococci: emergence on a global scale and influence on multiple-drug resistance” (2007).

System: Streptococcus
Assay: Antimicrobial activity against group A streptococci assessed as percent resistant isolates by Etest
Assay type: functional

SMILES | Activity [%]
CC[C@H]1OC(=O)[C@H](C)[C@@H](O[C@H]2C[C@@](C)(OC)[C@@H](O)[C@H](C)O2)[C@H](C)[C@@H](O[C@@H]2O[C@H](C)C[C@H](N(C)C)[C@H]2O)[C@](C)(O)C[C@@H](C)C(=O)[C@H](C)[C@@H](O)[C@]1(C)O [ERYTHROMYCIN] | 25
CN(C)[C@@H]1C(O)=C(C(N)=O)C(=O)[C@@]2(O)C(O)=C3C(=O)c4c(O)cccc4[C@@](C)(O)[C@H]3C[C@@H]12 [TETRACYCLINE] | 38
